From PubChem BioAssay AID2060622 (Molecular Pharmacology Branch, DTP, NCI, 2025)
Values joined by “and” are separate entries in the source; they are usually repeats but may differ in a detail not shown here. Equal entries are not always repeated.

System: 242566-281-R-J2-PDC complex spheroid viability
Experiment: Anticancer human tumor 242566-281-R-J2-PDC patient-derived pancreatic carcinoma cell line growth inhibition [CLK]
Conditions: for viability, T/C: stronger effect = lower value
In short: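 Multi-cell-type spheroids combined patient-derived tumor cells with HUVEC endothelial cells and human mesenchymal stem cells. Paired agents were dosed in half-log steps down from about clinical Cmax, or from 10 microM where Cmax was unknown.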

[1] = curve of first compound, second compound 0.0316 µM
[2] = curve of first compound, second compound 0.1 µM
[3] = curve of first compound, second compound 0.316 µM
[4] = curve of first compound, second compound 1 µM
[5] = curve of first compound, second compound 3.16 µM
[6] = curve of first compound, second compound 10 µM
[7] = second compound 0.0316 µM, first compound 0.0316 µM
[8] = second compound 0.0316 µM, first compound 0.1 µM
[9] = second compound 0.0316 µM, first compound 0.316 µM
[10] = second compound 0.0316 µM, first compound 1 µM
[11] = second compound 0.0316 µM, first compound 3.16 µM
[12] = second compound 0.0316 µM, first compound 10 µM
[13] = second compound 0.1 µM, first compound 0.0316 µM
[14] = second compound 0.1 µM, first compound 0.1 µM
[15] = second compound 0.1 µM, first compound 0.316 µM
[16] = second compound 0.1 µM, first compound 1 µM
[17] = second compound 0.1 µM, first compound 3.16 µM
[18] = second compound 0.1 µM, first compound 10 µM
[19] = second compound 0.316 µM, first compound 0.0316 µM
[20] = second compound 0.316 µM, first compound 0.1 µM
[21] = second compound 0.316 µM, first compound 0.316 µM
[22] = second compound 0.316 µM, first compound 1 µM
[23] = second compound 0.316 µM, first compound 3.16 µM
[24] = second compound 0.316 µM, first compound 10 µM
[25] = second compound 1 µM, first compound 0.0316 µM
[26] = second compound 1 µM, first compound 0.1 µM
[27] = second compound 1 µM, first compound 0.316 µM
[28] = second compound 1 µM, first compound 1 µM
[29] = second compound 1 µM, first compound 3.16 µM
[30] = second compound 1 µM, first compound 10 µM
[31] = second compound 3.16 µM, first compound 0.0316 µM
[32] = second compound 3.16 µM, first compound 0.1 µM
[33] = second compound 3.16 µM, first compound 0.316 µM
[34] = second compound 3.16 µM, first compound 1 µM
[35] = second compound 3.16 µM, first compound 3.16 µM
[36] = second compound 3.16 µM, first compound 10 µM
[37] = second compound 10 µM, first compound 0.0316 µM
[38] = second compound 10 µM, first compound 0.1 µM
[39] = second compound 10 µM, first compound 0.316 µM
[40] = second compound 10 µM, first compound 1 µM
[41] = second compound 10 µM, first compound 3.16 µM
[42] = second compound 10 µM, first compound 10 µM
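Further: spheroids exposed to compounds for 7 days before readout.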
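Wherever viability, T/C is given: 100% = DMSO vehicle control wells.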

C=C(F)C(=O)N1CCN(c2nc(OCC3CCCN3C)nc3c2CCN(c2cccc4cccc(Cl)c24)C3)CC1CC#N (stereo not drawn)
viability, T/C (compound 0.0316 µM): 88.1% and 109%
viability, T/C (compound 0.1 µM): 81.2% and 96.7%
viability, T/C (compound 0.316 µM): 70.4% and 103%
viability, T/C (compound 1 µM): 116% and 111%
viability, T/C (compound 3.16 µM): 103% and 83%
viability, T/C (compound 10 µM): 0.27% and 0.16%
IC50 (curve of compound): 5.35 µM and 5 µM

CC(C)CC(NC(=O)C(Cc1ccccc1)NC(=O)c1cnccn1)B(O)O (stereo not drawn)
viability, T/C (compound 0.000949 µM): 99.7% and 88.2%
viability, T/C (compound 0.003 µM): 40% and 80.3%
viability, T/C (compound 0.00949 µM): 1.73% and 1.58%
viability, T/C (compound 0.03 µM): 0.47% and 0.59%
viability, T/C (compound 0.0949 µM): 0.33% and 0.52%
viability, T/C (compound 0.3 µM): 0.18% and 0.32%
IC50 (curve of compound): 0.00248 µM and 0.00467 µM

C=C(F)C(=O)N1CCN(c2nc(OCC3CCCN3C)nc3c2CCN(c2cccc4cccc(Cl)c24)C3)CC1CC#N (stereo not drawn) + CNC(=O)c1ccc(Nc2nc(OC3CCCC3)c3c(-c4ccc5nc(C)oc5c4)c[nH]c3n2)c(OC)c1
IC50 [1]: 5.78 µM
IC50 [2]: 5.43 µM
IC50 [3]: 4.99 µM
IC50 [4]: 3.34 µM
IC50 [5]: 1.13 µM
IC50 [6]: 0.107 µM
viability, T/C [7]: 95.6%
viability, T/C [8]: 101%
viability, T/C [9]: 108%
viability, T/C [10]: 101%
viability, T/C [11]: 119%
viability, T/C [12]: 0.23%
viability, T/C [13]: 108%
viability, T/C [14]: 78.5%
viability, T/C [15]: 83.4%
viability, T/C [16]: 105%
viability, T/C [17]: 94.4%
viability, T/C [18]: 0.19%
viability, T/C [19]: 82.2%
viability, T/C [20]: 76.3%
viability, T/C [21]: 69.7%
viability, T/C [22]: 88.6%
viability, T/C [23]: 95%
viability, T/C [24]: 0.63%
viability, T/C [25]: 73.3%
viability, T/C [26]: 64.4%
viability, T/C [27]: 65.5%
viability, T/C [28]: 65%
viability, T/C [29]: 52.7%
viability, T/C [30]: 0.17%
viability, T/C [31]: 63.3%
viability, T/C [32]: 51.1%
viability, T/C [33]: 50.8%
viability, T/C [34]: 53.6%
viability, T/C [35]: 19.6%
viability, T/C [36]: 0.18%
viability, T/C [37]: 54.4%
viability, T/C [38]: 45.2%
viability, T/C [39]: 50%
viability, T/C [40]: 43.9%
viability, T/C [41]: 16%
viability, T/C [42]: 0.24%

Nc1ccn(C2OC(CO)C(O)C2(F)F)c(=O)n1 (stereo not drawn) + CNC(=O)c1ccc(Nc2nc(OC3CCCC3)c3c(-c4ccc5nc(C)oc5c4)c[nH]c3n2)c(OC)c1
IC50 [1]: 0.0849 µM
IC50 [2]: 0.115 µM
IC50 [3]: 0.0771 µM
IC50 [4]: 0.0567 µM
IC50 [5]: 0.0321 µM
IC50 [6]: < 0.0316 µM
viability, T/C [7]: 91.5%
viability, T/C [8]: 42.9%
viability, T/C [9]: 21.2%
viability, T/C [10]: 12.3%
viability, T/C [11]: 9.35%
viability, T/C [12]: 9.34%
viability, T/C [13]: 91.1%
viability, T/C [14]: 53.3%
viability, T/C [15]: 26.7%
viability, T/C [16]: 15.5%
viability, T/C [17]: 12.8%
viability, T/C [18]: 10%
viability, T/C [19]: 78%
viability, T/C [20]: 40.5%
viability, T/C [21]: 25.7%
viability, T/C [22]: 14.8%
viability, T/C [23]: 12.8%
viability, T/C [24]: 8.22%
viability, T/C [25]: 62.8%
viability, T/C [26]: 37.8%
viability, T/C [27]: 19.3%
viability, T/C [28]: 11.9%
viability, T/C [29]: 9.22%
viability, T/C [30]: 6.78%
viability, T/C [31]: 50.1%
viability, T/C [32]: 36.2%
viability, T/C [33]: 16.3%
viability, T/C [34]: 10.7%
viability, T/C [35]: 7.99%
viability, T/C [36]: 6.76%
viability, T/C [37]: 45.8%
viability, T/C [38]: 34.7%
viability, T/C [39]: 19.7%
viability, T/C [40]: 9.76%
viability, T/C [41]: 8.5%
viability, T/C [42]: 7.44%
